Experimental data taken from US11690838B2, “Therapeutic agent for fibrosis” (TAIHO PHARMACEUTICAL CO., LTD., priority 2015, dated 2023).

Test system: Bleomycin-Induced Mouse Pathology (Lung Fibrosis) Model
Assay: Suppression effect on bleomycin-induced mouse pathology (lung fibrosis) model
Assay type: in vivo
Settings: C57BL mice, bleomycin intratracheal, every day for 35 days; for hydroxyproline amount of lung tissues compared to the control group (pathological condition): FIG. 1; for score of abnormal accumulation of a fibrous tissue in lung tissues (Ashcroft's method) compared to the control group: FIG. 2
Procedure: Test Example 1: Suppression Effect on Bleomycin-Induced Mouse Pathology (Lung Fibrosis) Model
Mice (C57BL, 6 weeks old) were anesthetized by intraperitoneally administrating pentobarbital (50 mg/kg/day), and then bleomycin (20 μg/25 μL per mouse) was intra-tracheally sprayed by a sprayer. A week later, the mice were anesthetized by inhalation of isoflurane, 0.2 mL of blood was taken from the eye orbit of the mice. The blood level of a surfactant protein-D (SP-D) was measured. The mice were divided into groups (9 mice) such that the groups have an equal average SP-D value.
The compound of the present invention was orally administered at each of doses of 100 and 200 mg/kg/day, every day for 35 days. In order to confirm whether a pathological model was established, an untreated group (Normal group) and a Sham group were set up. To the mice of the Sham group, physiological saline was intratracheally sprayed in place of bleomycin. The next day after completion of the final administration, the mice were anesthetized by inhalation of isoflurane and euthanized. Thereafter, the lungs were excised out and subjected to pathological analysis for tissues. Abnormal accumulation of a fibrous tissue was evaluated and the amounts of hydroxyproline in the tissues were measured. The abnormal accumulation of a fibrous tissue was evaluated by using Ashcroft's method (J Clin Pathol 1988; 41: 467-470).
The hydroxyproline amounts of lung tissues of individual groups are shown in FIG. 1 and scores of abnormal accumulation of a fibrous tissue in the lung tissues are shown in FIG. 2. […] From this, it was determined that abnormal accumulation of a fibrous tissue in the lung tissue in mice was induced by bleomycin treatment and pathological models are established.

CNC(=O)c1cc2c(Oc3ccc(NC(=S)NC(=O)Cc4ccccc4)cc3F)ccnc2cc1OC [the compound of the present invention, 4-[2-Fluoro-4-[[[(2-phenylacetyl)amino]thioxomethyl]amino]-phenoxy]-7-methoxy-N-methyl-6-quinolinecarboxamide]
significantly low: hydroxyproline amount of lung tissues compared to the control group (pathological condition) (100 mg/kg/day orally) | score of abnormal accumulation of a fibrous tissue in lung tissues (Ashcroft's method) compared to the control group (100 mg/kg/day orally) | hydroxyproline amount of lung tissues compared to the control group (pathological condition) (200 mg/kg/day orally) | score of abnormal accumulation of a fibrous tissue in lung tissues (Ashcroft's method) compared to the control group (200 mg/kg/day orally)
